Literature values in patent publication US8461314B2, “Nucleic acid sequences for biosynthesis of non-MccJ25-related lariat peptides” (Rutgers, The State University of New Jersey, priority 2007, dated 2013).

Columns and labels:
[1] = target: Gram-negative bacterial RNA polymerase (Escherichia coli, UniProt P0A8T7+P0A8V2)
[2] = target: Gram-positive bacterial RNAP (Bacillus subtilis, UniProt P37870+P37871)
[3] = target: Thermus-Deinoccoccus bacterial RNAP (Thermus thermophilus, UniProt Q8RQE8+Q8RQE9); settings: including, for example
[4] = tested on: Escherchia coli
[5] = tested on: Salmonella sp.
[6] = tested on: Gram-positive bacterial; settings: Gram-positive bacteria
[7] = tested on: Thermococcus-Deinococcus bacterial growth; settings: Thermococcus-Deinococcus bacteria
[8] = tested on: RNA polymerase derivatives resistant to rifamycins
[9] = tested thermal and chemical denaturants
[10] = target: bacterial RNA polymerase (Escherichia coli, UniProt P0A8T7+P0A8V2)
[11] = tested on: mesophilic endo- and exopeptidease

Substance	inhibition of Gram-negative bacterial RNA polymerase [1]	inhibition of Gram-positive bacterial RNAP [2]	inhibition of Thermus-Deinoccoccus bacterial RNAP [3]	antibacterial activity [4]	antibacterial activity [5]	inhibition of bacterial growth [6]	inhibition of bacterial growth [7]	ability to inhibit RNA polymerase derivatives resistant to rifamycins [8]	cross-resistance with rifamycins [8]	resistance to denaturation [9]	inhibition of bacterial RNA polymerase [10]	resistance to proteolysis [11]
Gly1-Gly2-Ala3-Gly4-His5-Pro6-Val7-Glu8-Tyr9-Phe10-Val11-Gly12-Ile13-Gly14-Thr15-Pro16-Ile17-Ser18-Phe19-Tyr20-Gly21 cyclic(8→1) peptide [MccJ25]	inhibits	does not inhibit	does not inhibit	exhibits antibacterial activity	exhibits antibacterial activity	not inhibit	not inhibit	retains full ability to inhibit	no cross-resistance	complete resistance	inhibits	complete resistance
propeptin	inhibit	inhibit	inhibit								inhibit	
